# Experimental data as given in ChEMBL document CHEMBL3885881, “DrugMatrix”.
# Species on record: Rattus norvegicus
# Experiment: DrugMatrix - Regimen: Daily Repeat
# Type: toxicity, organism-based, Sprague-Dawley
# Design: regimen Daily Repeat, gender Male, age 6-8 weeks
# Conditions: in vivo, iv, vehicle 100 % SALINE; for ABSOLUTE BASOPHIL / ABSOLUTE EOSINOPHIL / ABSOLUTE LYMPHOCYTE / ABSOLUTE MONOCYTE / ABSOLUTE SEGMENTED NEUTROPHIL / BASOPHIL / EOSINOPHIL / ERYTHROCYTE COUNT / HEMATOCRIT / HEMOGLOBIN / LEUKOCYTE COUNT / LYMPHOCYTE / MEAN CORPUSCULAR HEMOGLOBIN / MEAN CORPUSCULAR HEMOGLOBIN CONCENTRATION / MEAN CORPUSCULAR VOLUME / MONOCYTE / NEUTROPHIL / NUCLEATED RED BLOOD CELLS / PLATELET COUNT: tissue Blood; for ALANINE AMINOTRANSFERASE / ALBUMIN / ALKALINE PHOSPHATASE / ASPARTATE AMINOTRANSFERASE / BLOOD UREA NITROGEN / CARBON DIOXIDE / CHLORIDE / CHOLESTEROL / CREATINE PHOSPHOKINASE / CREATININE / GLUCOSE / LACTATE DEHYDROGENASE / LIPASE / PHOSPHORUS / POTASSIUM / SODIUM / TOTAL BILIRUBIN / TOTAL PROTEIN / URIC ACID: tissue Plasma
# [1] = 2 mg/kg, 72 h, dose level High, time 3 day
# [2] = 2 mg/kg, 120 h, dose level High, time 5 day
# [3] = […], 72 h, dose 0.21 mg/Kg, dose level Low, time 3 day
# [4] = […], 120 h, dose 0.21 mg/Kg, dose level Low, time 5 day
compound,measurement,setting,value
O=C1c2c(O)ccc(O)c2C(=O)c2c(NCCNCCO)ccc(NCCNCCO)c21 [MITOXANTRONE],ABSOLUTE BASOPHIL,[1],0 CELLS/uL
same,ABSOLUTE EOSINOPHIL,[1],0 CELLS/uL
same,ABSOLUTE LYMPHOCYTE,[1],1529.67 CELLS/uL
same,ABSOLUTE MONOCYTE,[1],0 CELLS/uL
same,ABSOLUTE SEGMENTED NEUTROPHIL,[1],137 CELLS/uL
same,BASOPHIL,[1],0%
same,EOSINOPHIL,[1],0%
same,ERYTHROCYTE COUNT,[1],5.38 x10E6/uL
same,HEMATOCRIT,[1],34.37%
same,HEMOGLOBIN,[1],12.83 G/DL
same,LEUKOCYTE COUNT,[1],1.67 x10E3/uL
same,LYMPHOCYTE,[1],91.67%
same,MEAN CORPUSCULAR HEMOGLOBIN,[1],23.9 pg
same,MEAN CORPUSCULAR HEMOGLOBIN CONCENTRATION,[1],37.37 G/DL
same,MEAN CORPUSCULAR VOLUME,[1],63.87 fL
same,MONOCYTE,[1],0%
same,NEUTROPHIL,[1],8.33%
same,NUCLEATED RED BLOOD CELLS,[1],0 /100WBC
same,PLATELET COUNT,[1],1484 x10E3/uL
same,ALANINE AMINOTRANSFERASE,[1],42.67 u/L
same,ALBUMIN,[1],4.43 G/DL
same,ALKALINE PHOSPHATASE,[1],444 u/L
same,ASPARTATE AMINOTRANSFERASE,[1],64 u/L
same,BLOOD UREA NITROGEN,[1],15.67 mg/dL
same,CARBON DIOXIDE,[1],23 mmol/L
same,CHLORIDE,[1],104.67 MEQ/L
same,CHOLESTEROL,[1],79.33 mg/dL
same,CREATINE PHOSPHOKINASE,[1],220.67 u/L
same,CREATININE,[1],0.17 mg/dL
same,GLUCOSE,[1],180.33 mg/dL
same,LACTATE DEHYDROGENASE,[1],145 u/L
same,LIPASE,[1],10 u/L
same,PHOSPHORUS,[1],12.2 mg/dL
same,POTASSIUM,[1],5.98 MEQ/L
same,SODIUM,[1],146.2 MEQ/L
same,TOTAL BILIRUBIN,[1],0.13 mg/dL
same,TOTAL PROTEIN,[1],6.1 G/DL
same,URIC ACID,[1],2.67 mg/dL
same,ABSOLUTE BASOPHIL,[2],0 CELLS/uL
same,ABSOLUTE EOSINOPHIL,[2],0 CELLS/uL
same,ABSOLUTE LYMPHOCYTE,[2],1225 CELLS/uL
same,ABSOLUTE MONOCYTE,[2],0 CELLS/uL
same,ABSOLUTE SEGMENTED NEUTROPHIL,[2],8.33 CELLS/uL
same,BASOPHIL,[2],0%
same,EOSINOPHIL,[2],0%
same,ERYTHROCYTE COUNT,[2],5.82 x10E6/uL
same,HEMATOCRIT,[2],35.23%
same,HEMOGLOBIN,[2],13.37 G/DL
same,LEUKOCYTE COUNT,[2],1.23 x10E3/uL
same,LYMPHOCYTE,[2],99.33%
same,MEAN CORPUSCULAR HEMOGLOBIN,[2],23.07 pg
same,MEAN CORPUSCULAR HEMOGLOBIN CONCENTRATION,[2],37.97 G/DL
same,MEAN CORPUSCULAR VOLUME,[2],60.73 fL
same,MONOCYTE,[2],0%
same,NEUTROPHIL,[2],0.67%
same,NUCLEATED RED BLOOD CELLS,[2],0 /100WBC
same,PLATELET COUNT,[2],946 x10E3/uL
same,ALANINE AMINOTRANSFERASE,[2],32.33 u/L
same,ALBUMIN,[2],3.37 G/DL
same,ALKALINE PHOSPHATASE,[2],255.33 u/L
same,ASPARTATE AMINOTRANSFERASE,[2],47.67 u/L
same,BLOOD UREA NITROGEN,[2],15.67 mg/dL
same,CARBON DIOXIDE,[2],29.33 mmol/L
same,CHLORIDE,[2],105 MEQ/L
same,CHOLESTEROL,[2],107 mg/dL
same,CREATINE PHOSPHOKINASE,[2],271.67 u/L
same,CREATININE,[2],0.12 mg/dL
same,GLUCOSE,[2],142.33 mg/dL
same,LACTATE DEHYDROGENASE,[2],141.33 u/L
same,LIPASE,[2],9.67 u/L
same,PHOSPHORUS,[2],11.97 mg/dL
same,POTASSIUM,[2],6.74 MEQ/L
same,SODIUM,[2],146.57 MEQ/L
same,TOTAL BILIRUBIN,[2],0.1 mg/dL
same,TOTAL PROTEIN,[2],5.2 G/DL
same,URIC ACID,[2],1.33 mg/dL
same,ABSOLUTE BASOPHIL,[3],0 CELLS/uL
same,ABSOLUTE EOSINOPHIL,[3],34.67 CELLS/uL
same,ABSOLUTE LYMPHOCYTE,[3],7414.67 CELLS/uL
same,ABSOLUTE MONOCYTE,[3],92.67 CELLS/uL
same,ABSOLUTE SEGMENTED NEUTROPHIL,[3],224.67 CELLS/uL
same,BASOPHIL,[3],0%
same,EOSINOPHIL,[3],0.33%
same,ERYTHROCYTE COUNT,[3],5.52 x10E6/uL
same,HEMATOCRIT,[3],34.13%
same,HEMOGLOBIN,[3],12.87 G/DL
same,LEUKOCYTE COUNT,[3],7.77 x10E3/uL
same,LYMPHOCYTE,[3],96%
same,MEAN CORPUSCULAR HEMOGLOBIN,[3],23.37 pg
same,MEAN CORPUSCULAR HEMOGLOBIN CONCENTRATION,[3],37.73 G/DL
same,MEAN CORPUSCULAR VOLUME,[3],61.87 fL
same,MONOCYTE,[3],1%
same,NEUTROPHIL,[3],2.67%
same,NUCLEATED RED BLOOD CELLS,[3],0 /100WBC
same,PLATELET COUNT,[3],1537 x10E3/uL
same,ALANINE AMINOTRANSFERASE,[3],46 u/L
same,ALBUMIN,[3],4.5 G/DL
same,ALKALINE PHOSPHATASE,[3],370.67 u/L
same,ASPARTATE AMINOTRANSFERASE,[3],75 u/L
same,BLOOD UREA NITROGEN,[3],14.33 mg/dL
same,CARBON DIOXIDE,[3],24 mmol/L
same,CHLORIDE,[3],103.33 MEQ/L
same,CHOLESTEROL,[3],77.33 mg/dL
same,CREATINE PHOSPHOKINASE,[3],192 u/L
same,CREATININE,[3],0.24 mg/dL
same,GLUCOSE,[3],163 mg/dL
same,LACTATE DEHYDROGENASE,[3],207.67 u/L
same,LIPASE,[3],9.67 u/L
same,PHOSPHORUS,[3],13.57 mg/dL
same,POTASSIUM,[3],7.01 MEQ/L
same,SODIUM,[3],145.1 MEQ/L
same,TOTAL BILIRUBIN,[3],0.23 mg/dL
same,TOTAL PROTEIN,[3],6.23 G/DL
same,URIC ACID,[3],2.6 mg/dL
same,ABSOLUTE BASOPHIL,[4],0 CELLS/uL
same,ABSOLUTE EOSINOPHIL,[4],26.67 CELLS/uL
same,ABSOLUTE LYMPHOCYTE,[4],5180 CELLS/uL
same,ABSOLUTE MONOCYTE,[4],42.67 CELLS/uL
same,ABSOLUTE SEGMENTED NEUTROPHIL,[4],217.33 CELLS/uL
same,BASOPHIL,[4],0%
same,EOSINOPHIL,[4],0.67%
same,ERYTHROCYTE COUNT,[4],5.12 x10E6/uL
same,HEMATOCRIT,[4],32.83%
same,HEMOGLOBIN,[4],12.5 G/DL
same,LEUKOCYTE COUNT,[4],5.47 x10E3/uL
same,LYMPHOCYTE,[4],94.33%
same,MEAN CORPUSCULAR HEMOGLOBIN,[4],24.47 pg
same,MEAN CORPUSCULAR HEMOGLOBIN CONCENTRATION,[4],38.1 G/DL
same,MEAN CORPUSCULAR VOLUME,[4],64.27 fL
same,MONOCYTE,[4],1%
same,NEUTROPHIL,[4],4%
same,NUCLEATED RED BLOOD CELLS,[4],0.33 /100WBC
same,PLATELET COUNT,[4],1671.33 x10E3/uL
same,ALANINE AMINOTRANSFERASE,[4],42.33 u/L
same,ALBUMIN,[4],4.27 G/DL
same,ALKALINE PHOSPHATASE,[4],328.67 u/L
same,ASPARTATE AMINOTRANSFERASE,[4],67 u/L
same,BLOOD UREA NITROGEN,[4],15 mg/dL
same,CARBON DIOXIDE,[4],24.33 mmol/L
same,CHLORIDE,[4],107.67 MEQ/L
same,CHOLESTEROL,[4],77.67 mg/dL
same,CREATINE PHOSPHOKINASE,[4],193.33 u/L
same,CREATININE,[4],0.25 mg/dL
same,GLUCOSE,[4],163.33 mg/dL
same,LACTATE DEHYDROGENASE,[4],101 u/L
same,LIPASE,[4],12 u/L
same,PHOSPHORUS,[4],11.77 mg/dL
same,POTASSIUM,[4],6.53 MEQ/L
same,SODIUM,[4],146.7 MEQ/L
same,TOTAL BILIRUBIN,[4],0.2 mg/dL
same,TOTAL PROTEIN,[4],5.87 G/DL
same,URIC ACID,[4],1.8 mg/dL
